# Source: patent US20050222027A1, “Modulation of complement to treat pain” (Euro-Celtique S.A., priority 2003, published 2005)
# “Also recorded” adds a separate entry of the source.
# Experiments:
# [1] = test system: C3; experiment: Hemolysis assay measuring C3 activity in serum of rats given CVF; format: in vivo, rat
# Source text: A variety of methods well-known in the art can be used to determine at least one activity of a complement component. As described in the Examples Section below, the hemolysis assay can be used to measure the activity of C3 in the serum from blood samples. In the hemolysis assay, erythrocytes are sensitized by coating these erythrocytes with antibodies against red blood cells. Next, the sensitized erythrocytes, C3-depleted serum, and a blood sample to be tested for C3 activity are combined and incubated. During incubation, the complement pathway proceeds on the surface of the erythorcytes using complement components from the C3-depleted serum and C3 from the blood sample. This pathway can result in the formation of a sufficient number of MAC pores to induce erythorcyte lysis and hemoglobin release. The optical density at 540 run is then measured to determine the quantity of free hemoglobin in solution as a result of erythrocyte lysis. Since erythrocyte lysis is a result of complement activation and the presence of C3, the optical density at 540 nm is a measure of the activity of C3 in the blood sample.
# To determine the effect of CVF on complement C3 activity, naïve animals were injected with CVF on days 0, 3, and 6. C3 activity was measured using the hemolysis assay before and after CVF injections as described below.
# The timeline for the general method of surgery followed by CVF injection is outlined in FIG. 8. Spinal nerve ligation (SNL) was performed on Sprague-Dawley rats as described above in Example 1. On day 0, SNL surgery was performed on 20 rats and sham surgery was performed on 20 rats. At days 23 and 26 post surgery, 10 SNL and 10 sham animals (designated herein as SNL-CVF and Sham-CVF, respectively) were injected (ip) with CVF (350 units/kg). In addition, as controls, 10 SNL and 10 sham animals (designated herein as SNL-saline and Sham-saline, respectively) were given saline injections (ip). Five animals from each group were terminated on day 29. The remaining five animals were terminated on day 39. Pain behavior was measured using the paw pressure test as described in Example 1 above. C3 activity was measured by the hemolysis assay before and after animals received CVF as described below.
# The sensitization of sheep erythrocytes and the hemolysis assay to measure C3 activity were performed according to the Quidel Technical Bulletin entitled Measurement of C3 function in non-primate sera by hemolytic assay (Quidel Corporation, Santa Clara, Calif.). References within this protocol are the following: DeSautel and Brode, Laryngoscope 1999, 109:1674-8; Kirshfink, The Complement System 1998, Rother and Till eds, Springer Verlag Berlin Heidelberg, 522-547; Mollnes, Complement and Complement Receptors 1997, Weir ed, 78.1-78.6; Porcel et al., J. Immunol Method. […]
# [2] = test system: spinal nerve ligation (SNL) model of neuropathic pain; experiment: Paw pressure test (paw withdrawal threshold) in the SNL model of neuropathic pain; format: in vivo, rat
# Source text: Rats having the L5-L6 spinal nerves ligated (SNL) according to the method of Kim and Chung, Pain 1992; 50:355-63 were used in this experiment. Briefly, nerve injury was induced by tight ligation of the left L5 and L6 spinal nerves, producing symptoms of neuropathic pain as described below. The advantage of this model is that it allows the investigation of dorsal root ganglia that are injured (L5 and L6) versus dorsal root ganglia that are not injured (L4). Thus, it is possible to see changes in gene expression specifically in response to nerve injury.
# Surgery was performed under isoflurane/O2 inhalation anesthesia. Following induction of anesthesia, a 3 cm incision was made just lateral to the spinal vertebrae. The left paraspinal muscles were separated from the spinous process at the L4-S2 levels. The L6 transverse process was carefully removed with a pair of small rongeurs to visually identify the L4-L6 spinal nerves. The left L5 and L6 spinal nerves were isolated and tightly ligated with 7-0 silk suture. A complete hemostasis was confirmed, and the wound was sutured using […] sutures, such as 4-0 Vicryl.
# Mechanical sensitivity was assessed using the paw pressure test. This test measures mechanical hyperalgesia. Hind paw withdrawal thresholds (“PWT”) (measured in grams) in response to a noxious mechanical stimulus were determined using an analgesymeter (Model 7200, commercially available from Ugo Basile of Italy), as described in Stein, Biochemistry & Behavior 1988; 31: 451-455. […] PWT was determined once for each rat at each time point, and only the injured ipsilateral paw (i.e., the hind paw on the same side of the animal as the ligation in SNL animals, or the side of the animal where the nerve was exposed but not injured in sham-operated animals) was used in the test. […]
# The timeline for the general method of surgery followed by CVF injection is outlined in FIG. 8. […] Pain behavior was measured using the paw pressure test as described in Example 1 above. C3 activity was measured by the hemolysis assay before and after animals received CVF as described below.
substance,measurement,setting,value
CVF,C3 complement activity levels on day 39,"[1]; CVF 350 units/kg ip on days 23 and 26 post surgery, day 39, FIG. 10C",returned to pre-surgery and day 23 levels
same,C3 activity levels relative to pre-surgery and day 23,"[1]; CVF treated animals (350 units/kg ip on days 23 and 26 post surgery), days 28 and 29, FIG. 10B",below 20%
same,C3 activity (hemolysis assay) after CVF treatment,"[1]; SNL and sham surgery rats injected with CVF or saline, FIGS. 10B and 10C",C3 activity decreases after CVF treatment in both SNL and sham surgery animals
same,"C3 activity (hemolysis assay, optical density at 540 nm) after CVF treatment","[1]; naïve rats, CVF given on days 0, 3 and 6, measured at 0, 3, 6, 7, 8 and 12 days, FIG. 10A",return to pre-dosing levels by day 8; also recorded: C3 activity decreases
same,Pain tolerance (withdrawal threshold to a mechanical stimulus) versus SNL animals injected with saline,[2]; SNL rats treated with CVF compared to SNL saline control,chronic pain is alleviated; also recorded: higher pain tolerance
same,Pain behavior (paw withdrawal threshold) of SNL-CVF animals by day 29,"[2]; SNL rats, CVF 350 units/kg ip on days 23 and 26 post surgery, day 29, FIG. 9",not significantly different than Sham-saline or Sham-CVF animals
same,Pain behavior (paw withdrawal threshold) of SNL-CVF animals by day 31,"[2]; SNL rats, CVF 350 units/kg ip on days 23 and 26 post surgery, day 31, FIG. 9",returned to day 23 levels
